# According to patent publication US4859452A (priority 1987, dated 1989):
# Read-outs that look alike come from different tables or passages of the source.
# Key:
# [1] = test system: DFMO-Induced Thrombocytopenia; conditions: rat, in vivo
# Experimental: (§1) Central venous catheters were inserted into Fisher 344 male rats. […] This concentration is equimolar to the arginine concentration in 10% Travasol. After 12 days of infusion the rats were sacrificed and platelet counts were determined in peripheral blood.
# [2] = test system: ornithine decarboxylase (ODC); conditions: cited from earlier work
# [3] = Toxicity of continuous i.v. DFMO infusion for 12 days in tumor-bearing and non-tumor-bearing rats; assay type: in vivo, rat
# Source text: FIG. 3. […] Bars indicate standard deviation.
# In the above described rat model, a continuous infusion of DFMO was given through a central venous catheter.
# [4] = human, in vivo
# Source text: FIG. 4. Platelet counts plotted against days of continuous i.v. DFMO infusion in patients with advanced colorectal carcinoma. […] The paired points are connected by a straight line.
# There was no incidence of nausea, vomiting or diarrhea.
# [5] = RBC putrescine in tumor-bearing versus non tumor-bearing rats infused with feeding solutions; conditions: NTB rats; p<0.05
# Source text: A methylcholanthrene-induced fibrosarcoma (0.17 g) was implanted as a brei into the right flank under anesthesia and the animals were fed a chow diet for 21 days. When the tumors were at least 1.0 cm in width, two-dimensional measurements with calipers were instituted and the equation, length (cm)×(width [cm])^2 ×1/2=grams of tumor tissue, was used to estimate tumor weight. […] The animals were then allowed to recover overnight and continuous infusions were started the next morning. […] After 6 days of continuous infusion, the animals were sacrificed by aortic bleeding. Liver and tumor were excised and weighed and kept frozen at -70° C. until assays were done. Only viable, nonnecrotic tumor tissue was saved and assayed.
# [6] = in words; tumor and RBC
# Experimental: After obtaining the blood sample by venipuncture, or some other suitable means, blood hematocrit is determined and the blood is centrifuged for 10 minutes at 500 g. The plasma is removed for albumin determination and the remaining cells are washed with an equal volume of cold 0.9% NaCl and centrifuged at 200 g for 15 minutes. The buffy coat is then carefully aspirated along with the supernatant and discarded. After thoroughly mixing the packed RBC, a 1.0 ml aliquot is extracted for polyamine analysis. While shaking continuously with a Vortex mixer, 2.5 ml of freshly prepared 6% trichloroacetic acid (TCA) is added followed by 60 ul of 100% TCA. This is done to avoid insufficient mixing if 100% TCA is added directly to RBC. The samples are mixed thoroughly for a minimum of 3 minutes and frozen at -70° C. if further extraction steps are performed. The samples are thawed and centrifuged at 200×g for 15 minutes. The supernatant is then transferred to tubes containing 40 ul of concentrated HCl. The samples are washed twice with anhydrous ether and dried. The pellets are dissolved in 100 ul of 0.5 N HCl and centrifuged at 200 g. The clear supernatant is then analyzed for polyamines using, for example, a Durrum D-500 amino acid analyzer.
# A methylcholanthrene-induced fibrosarcoma (0.17 g) was implanted as a brei into the right flank under anesthesia and the animals were fed a chow diet for 21 days. […]
# [7] = test system: DFMO-Induced Thrombocytopenia; assay: Influence of ornithine co-administration on DFMO-induced thrombocytopenia in the rat; conditions: in words
# Experimental: as §1
smiles,measurement,setting,value
"NCCCC(N)(C(=O)O)C(F)F (stereo not shown) [DFMO, Difluoromethylornithine]",effect on platelet suppression / platelet count,[1],significant decrease in platelet count as compared with the saline treatment
same,ODC inhibition mode,[2],irreversible inhibitor of ODC
same,tumor growth,MCA sarcoma; MCA sarcoma,reduces the growth rate of an MCA sarcoma but does not produce tumor regression
same,effect on peripheral platelet counts,"MCA sarcoma; rat, in vivo",without suppressing peripheral platelet counts
same,small intestinal mucosa histology,"[3]; rat, in vivo",histological evidence of small intestinal mucosal atrophy
same,white cell count and hematocrit changes,"[3]; rat, in vivo",not significantly altered
same,clinical toxicity,"[3]; rats, 12 day study",no significant clinical toxicity
same,"decreased hearing acuity, patients",[4],two
same,hematocrit,[4],Significant suppression of the hematocrit was also noted with a trend toward dose related suppression
same,"nausea, vomiting or diarrhea",[4],no incidence
same,"platelet suppression, 8 g dose compared with 6 g dose",[4],significantly greater platelet at the 8 g dose as compared with the 6 g dose
same,time to resolution of all toxicities after discontinuing infusion,[4],two
same,white cell count,[4],not affected by either dose
N=C(N)NCCC[C@H](N)C(=O)O [arginine],increase in RBC putrescine levels versus chow or essential amino acids only,[5],significantly greater (p<0.05) than those receiving chow or essential amino acids only
same,comparison of ornithine and arginine for increase in polyamine levels,[6],both appeared to promote an increase in tumor-related levels
NCCC[C@H](N)C(=O)O [ornithine],effect on platelet suppression / platelet count,[7],significant reversal in the platelet suppression
